Source: US20250034254A1, “USE OF ANTI-PD-1 ANTIBODY IN COMBINATION WITH CHEMOTHERAPY IN TREATING ESOPHAGEAL CANCER” (SHANGHAI JUNSHI BIOSCIENCES CO., LTD., priority 2021, published 2025)

Key:
[1] = system: patients with advanced or metastatic esophageal squamous cell carcinoma; experiment: Phase III clinical study of toripalimab (JS001) or placebo in combination with first-line chemotherapy: efficacy (ITT, RECIST 1.1); assay type: in vivo, human; details: for Objective response rate (ORR) / Objective response rate (ORR), number of subjects: RECIST 1.1; for DCR inter-group difference (95% CI) / ORR inter-group difference (95% CI): JS001 + TP versus Placebo + TP; for Duration of response (DOR), median: patients with BOR of CR or PR
Description: (§1) This is a randomized, double-blind, placebo-controlled, multicenter, phase III clinical study evaluating the efficacy and safety of toripalimab (JS001) or placebo in combination with first-line chemotherapy in patients with advanced or metastatic esophageal squamous cell carcinoma that are not previously treated with systemic chemotherapy and exploring the population with optimal biomarker prediction.
Eligible subjects shall meet the following criteria: (1) aged between 18 and 75 years; (2) histologically or pathologically confirmed metastatic or relapsed esophageal squamous cell carcinoma; (3) previously not treated for relapsed or metastatic ESCC; (4) at least one measurable lesion (according to RECIST 1.1); (5) an ECOG score of 0 or 1; (6) normal organ functions.
(§2) Approximately 514 patients with advanced or metastatic esophageal squamous cell carcinoma were randomized into two groups in a ratio of 1:1, with the treatment group receiving toripalimab in combination with first-line chemotherapy and the control group receiving placebo in combination with first-line chemotherapy. The patients were stratified by ECOG score (0 vs 1) and previous radiotherapy (present vs absence).
(§3) After randomization, the patients were subject to combination chemotherapy, receiving toripalimab or placebo+first-line chemotherapy for up to 6 cycles. After that, the patients were subject to maintenance therapy, continuously receiving toripalimab or placebo treatment until disease progression, intolerable toxicity, withdrawal from the study or up to 2 years.
(§4) Toripalimab 240 mg/placebo was administered by intravenous infusion once every three weeks (Q3W) in treatment cycles of 21 days. Treatment continued until the patients met the discontinuation criteria, i.e., recorded disease progression, unacceptable AE, investigator-assessed unsuitability for continued treatment, withdrawal of informed consent, 2 years of JS001 treatment or other reasons as specified in the protocol.
as §4, with “Toripalimab injection” for “Toripalimab”, “Q3W” for “once every three weeks (Q3W)”, “patient” for “patients”, “AEs,” for “AE,”
The patients received JS001/placebo+first-line chemotherapy during the combination chemotherapy period (up to 6 cycles). After that, the patients were subject to maintenance monotherapy, continuously receiving JS001/placebo treatment until disease progression, intolerable toxicity, withdrawal from the study or up to 2 years.
(§5) Intent-to-Treat (ITT) set: including all randomized patients during the primary study period. This analysis set was used as the primary analysis set for efficacy analysis. Per protocol set (PPS): including all ITT population having valid baseline information without major violation to the protocol that may affect the efficacy analysis. The PPS population was determined based on actual protocol violations before database lock of the study. The PPS population was used for sensitivity analysis of the primary efficacy endpoints as well as part of the secondary efficacy endpoints. Safety analysis set (SS): including all patients who received at least one dose of the study drug (JS001/placebo/chemotherapeutic agent).
Unless otherwise specified, the efficacy analysis was based on the ITT set by treatment. […]

[2] = Phase III clinical study of toripalimab (JS001) or placebo in combination with first-line chemotherapy: safety (SS population); details: human, in vivo
Description: as §1, §2, §3, §4, §5
All safety analyses were based on the SS population (514 patients), including 257 patients in the treatment group and 257 patients in the control group. Both groups were sufficiently exposed to JS001+chemotherapy treatment or placebo+chemotherapy treatment. The primary safety analysis results based on the SS population in the double-blind phase of the primary study are as follows: […]

[3] = BICR-assessed, listed as treatment group
[4] = ITT, as of Mar. 22, 2021, median follow-up 7.343 months
[5] = ITT, assessed by the investigator

JS001 + TP: toripalimab 240 mg Q3W in combination with first-line chemotherapy TP (paclitaxel 175 mg/m^2 + cisplatin 75 mg/m^2)
6-month DOR ([1]; BICR-assessed): 47.4%
12-month DOR (1-year DOR rate) ([1]; BICR-assessed): 28.2%
Best overall response: Complete response (CR) ([1]; BICR-assessed): (11.7) %
Best overall response: Complete response (CR), number of subjects ([1]; BICR-assessed): 30
Best overall response: Not applicable, number of subjects ([1]; BICR-assessed): 0
Best overall response: Not evaluable (NE), number of subjects ([1]; BICR-assessed): 0
Best overall response: Partial response (PR) ([1]; BICR-assessed): (57.6) %
Best overall response: Partial response (PR), number of subjects ([1]; BICR-assessed): 148
Best overall response: Progressive disease (PD) ([1]; BICR-assessed): (7.0) %
Best overall response: Progressive disease (PD), number of subjects ([1]; BICR-assessed): 18
Best overall response: Stable disease (SD), number of subjects ([1]; BICR-assessed): 51
Best overall response: non-CR/non-PD ([1]; BICR-assessed): (0.4) %
Best overall response: non-CR/non-PD, number of subjects ([1]; BICR-assessed): 1
DOR HR (95% CI) ([1]; BICR-assessed): 0.58 (0.412, 0.810), P = 0.00136
Disease control rate (DCR) ([1]; BICR-assessed): 89.1%
Disease control rate (DCR), number of subjects ([1]; BICR-assessed): 229
Objective response rate (ORR) ([1]; BICR-assessed): 69.3%
Objective response rate (ORR), number of subjects ([1]; BICR-assessed): 178
DCR inter-group difference (95% CI) ([1]; BICR-assessed): 7.1 (1.1, 13.1) %
ORR inter-group difference (95% CI) ([1]; BICR-assessed): 17.2 (9.0, 25.4) %
ORR inter-group difference (95% CI) [1, 3]: 17.2%
DOR HR (95% CI) [1, 3]: 0.58
Duration of response (DOR), median ([1]; BICR-assessed): 5.6 month
PFS subpopulation analysis ([1]; BIRC, ECOG score, previous radiotherapy, disease stage, PD-L1 expression, 11q13, TMB subpopulations): superiority in PFS
OS subpopulation analysis ([1]; ECOG score, previous radiotherapy, disease stage, PD-L1 expression, 11q13, TMB subpopulations): superiority in OS
OS hazard ratio (HR), treatment vs control group ([1]; ITT population): 0.58
median OS ([1]; ITT population): 17.0 months
prolongation of median OS versus chemotherapy ([1]; ITT population): 6 months
reduction of death hazard versus chemotherapy ([1]; ITT population): 42%
deaths reported, % of patients [1, 4]: 27.2%
deaths reported, number of patients [1, 4]: 70
1-year PFS rate ([1]; ITT, assessed by BIRC): 27.8%
PFS hazard ratio (HR), treatment vs control group ([1]; ITT, assessed by BIRC): 0.58
reduction of progression or death hazard versus chemotherapy ([1]; ITT, assessed by BIRC): 42%
median PFS ([1]; ITT, assessed by BIRC based on RECIST 1.1): 5.7 months
PFS hazard ratio (HR), treatment vs control group [1, 5]: 0.58
reduction of progression or death hazard versus chemotherapy [1, 5]: 42%
median PFS ([1]; ITT, assessed by the investigator based on RECIST 1.1): 7.0 months
6-month DOR ([1]; Investigator-assessed): 55.6%
12-month DOR ([1]; Investigator-assessed): 30.9%
Best overall response: Complete response (CR) ([1]; Investigator-assessed): (5.1) %
Best overall response: Complete response (CR), number of subjects ([1]; Investigator-assessed): 13
Best overall response: Not evaluable (NE), number of subjects ([1]; Investigator-assessed): 0
Best overall response: Partial response (PR) ([1]; Investigator-assessed): (67.3) %
Best overall response: Partial response (PR), number of subjects ([1]; Investigator-assessed): 173
Best overall response: Progressive disease (PD) ([1]; Investigator-assessed): (3.9) %
Best overall response: Progressive disease (PD), number of subjects ([1]; Investigator-assessed): 10
Best overall response: Stable disease (SD), number of subjects ([1]; Investigator-assessed): 52
DOR HR (95% CI) ([1]; Investigator-assessed): 0.50 (0.359, 0.684), P = 0.00001
Disease control rate (DCR) ([1]; Investigator-assessed): 92.6%
Disease control rate (DCR), number of subjects ([1]; Investigator-assessed): 238
Objective response rate (ORR) ([1]; Investigator-assessed): 72.4%
Objective response rate (ORR), number of subjects ([1]; Investigator-assessed): 186
DCR inter-group difference (95% CI) ([1]; Investigator-assessed): 5.5 (0.3, 10.7) %
ORR inter-group difference (95% CI) ([1]; Investigator-assessed): 14.1 (6.0, 22.2) %
ORR inter-group difference (95% CI) ([1]; Investigator-assessed, listed as treatment group): 14%
Duration of response (DOR), median ([1]; Investigator-assessed): 4.2 month
prolongation of DOR over the control group ([1]; assessed by BIRC): 1.4 months
SAE: anemia [2]: 1.2%
SAE: asthenia [2]: 1.2%
SAE: bone marrow depression [2]: 1.2%
SAE: decreased leukocyte count [2]: 2.3%
SAE: decreased neutrophil count [2]: 1.6%
SAE: decreased platelet count [2]: 1.6%
SAE: dysphagia [2]: 1.2%
SAE: infectious pneumonitis [2]: 5.1%
SAE: vomiting [2]: 8.9%
TEAE: alopecia [2]: 35.4%
TEAE: anemia [2]: 77.0%
TEAE: asthenia [2]: 41.6%
TEAE: constipation [2]: 24.1%
TEAE: decreased appetite [2]: 39.3%
TEAE: decreased leukocyte count [2]: 67.7%
TEAE: decreased neutrophil count [2]: 66.9%
TEAE: decreased platelet count [2]: 28.4%
TEAE: diarrhea [2]: 23.0%
TEAE: nausea [2]: 42.8%
TEAE: vomiting [2]: 40.1%
TEAE: weight loss [2]: 28.8%
immune-related adverse events (irAEs), % of patients [2]: 37%
immune-related adverse events (irAEs), number of patients [2]: 95
irAE resulting in death [2]: no irAE resulting in death was reported
irAEs of grade 3 or higher, % of subjects [2]: 6.6%
irAEs of grade 3 or higher, number of subjects [2]: 17
proportion of SAEs of grade 3 or higher as per CTCAE [2]: 30.0%
proportion of TEAEs of grade 3 or higher as per CTCAE [2]: 73.2%
proportion of patients who experienced at least 1 TEAE [2]: 99.2%
proportion of treatment-emerged SAEs [2]: 36.2%
